8 compounds from PubChem BioAssay (NCI) can be followed below.

Several values for one entry are separate records, joined by “and”; a condition that tells them apart may be missing. Equal entries are not always repeated.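 Assay format: 96-well plates, 48-hour exposure. GI50 is the concentration that inhibits growth by half. At the TGI there is no net growth.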

Some test systems named below: SK-MEL-28 melanoma; HCT-116 colon; UO-31 renal; TK-10 renal; SF-268 CNS; UACC-62 melanoma; IGROV1 ovarian; NCI-H460 lung; PC-3 prostate; CAKI-1 renal.
What all share (test): NCI tumour cell line growth inhibition, 48 h

For the compound `C[C@@H]1C[C@@]2(O[C@@H]2C)C(=O)O[C@@H]2CCN3CC=C(COC(=O)[C@]1(C)O)[C@H]23`, the TGI in the assay with SK-MEL-28 melanoma, in the assay on HCT-116 colon, with UO-31 renal, in the assay on TK-10 renal, with SF-268 CNS and in the assay on UACC-62 melanoma was above 100 µM each time. Moreover, the TGI with IGROV1 ovarian, with NCI-H460 lung, with PC-3 prostate and in the assay on CAKI-1 renal was above 100 µM throughout.
As for `Oc1ccc(N=Nc2ccc(N=Nc3ccccc3)cc2)cc1`, the GI50 in the assay with SK-MEL-28 melanoma was 1.7 µM; in the assay on HCT-116 colon, 1.99 µM; with UO-31 renal it was 0.61 µM; in the assay with TK-10 renal, 1.98 µM; in the assay with SF-268 CNS, 1.63 µM; with UACC-62 melanoma it was 0.874 µM. Further, the GI50 in the assay with IGROV1 ovarian was 3.5 µM; in the assay on NCI-H460 lung, 1.97 µM; in the assay on PC-3 prostate it was 2.83 µM; in the assay on CAKI-1 renal it was 1.45 µM. Also, the TGI with SK-MEL-28 melanoma stood at 3.64 µM; in the assay with HCT-116 colon it was 10.1 µM; in the assay on UO-31 renal it was 3.73 µM; with TK-10 renal, 5.55 µM; in the assay on SF-268 CNS it was 11.8 µM; in the assay on UACC-62 melanoma it was 2.41 µM. Besides, the TGI worked out at 18.2 µM in the assay with IGROV1 ovarian, 6.16 µM with NCI-H460 lung, 16.8 µM in the assay with PC-3 prostate and 4.12 µM in the assay on CAKI-1 renal.
As to `O=P1(O)c2ccccc2Nc2cc(C(F)(F)F)ccc21`, the TGI with SK-MEL-28 melanoma, in the assay on HCT-116 colon, with UO-31 renal, with TK-10 renal, in the assay on SF-268 CNS and in the assay on UACC-62 melanoma was above 100 µM in each case. Further, the TGI with IGROV1 ovarian, with NCI-H460 lung, with PC-3 prostate and in the assay on CAKI-1 renal was above 100 µM throughout.
As for `CCCCCN(CCCCC)CC(O)c1cc2c(c3ccccc13)CCCC2` (centres undefined), the GI50 in the assay with SK-MEL-28 melanoma is 12.1 µM; with HCT-116 colon it was 2.7 µM and 2.24 µM; in the assay on UO-31 renal, 3.79 µM and 6.15 µM; with TK-10 renal it was 10.6 µM and 18.2 µM; in the assay with SF-268 CNS it was 11.3 µM and 16.5 µM; with UACC-62 melanoma, 3.31 µM and 11.2 µM. In addition, the GI50 is 3.5 µM and 6.44 µM in the assay on IGROV1 ovarian; 3.4 µM and 4.36 µM in the assay on NCI-H460 lung; 5.14 µM and 5.62 µM with PC-3 prostate; 3.44 µM and 4.29 µM in the assay with CAKI-1 renal. For the same compound, the TGI was 25.5 µM in the assay on SK-MEL-28 melanoma; 12.8 µM and 13.1 µM in the assay on HCT-116 colon; 15.6 µM and 22.1 µM with UO-31 renal; 22.9 µM and 37.9 µM in the assay with TK-10 renal; 23.9 µM and 36.8 µM with SF-268 CNS; 12.9 µM and 29.2 µM in the assay on UACC-62 melanoma. Also, the TGI in the assay with IGROV1 ovarian is 17.3 µM and 33.3 µM; with NCI-H460 lung it was 13.8 µM and 16.1 µM; in the assay with PC-3 prostate, 21.6 µM and 20.9 µM; with CAKI-1 renal it was 10.9 µM and 20.2 µM.
Consider `N#Cc1nc2cc(F)c(F)cc2nc1-c1ccc(Cl)cc1`, for which the GI50 in the assay with SK-MEL-28 melanoma is 22 µM; with HCT-116 colon, 10.7 µM; with UO-31 renal, 12.2 µM; in the assay on TK-10 renal, 22.4 µM; with SF-268 CNS, 8.07 µM; in the assay on UACC-62 melanoma it was 0.645 µM. The GI50 with IGROV1 ovarian is 0.673 µM; with NCI-H460 lung, 57.5 µM; in the assay on PC-3 prostate, 4.27 µM; with CAKI-1 renal, 15.1 µM. The TGI was above 100 µM in the assay on SK-MEL-28 melanoma; 29.2 µM with HCT-116 colon; 38.1 µM in the assay on UO-31 renal; 67.3 µM in the assay with TK-10 renal; 30.2 µM with SF-268 CNS; 7.17 µM in the assay on UACC-62 melanoma. Also, the TGI with IGROV1 ovarian is 2.31 µM; in the assay on NCI-H460 lung, above 100 µM; in the assay on PC-3 prostate it was 20.2 µM; in the assay on CAKI-1 renal, 38.5 µM.
On to `CNc1nc(N(C)C)nc(N(C)C)n1`, for which the GI50 with SK-MEL-28 melanoma was > 100 µM and 1240 µM; in the assay on HCT-116 colon, > 100 µM and 809 µM; with UO-31 renal, > 100 µM and 828 µM; in the assay with TK-10 renal, > 100 µM and 2270 µM; with SF-268 CNS it was > 100 µM and 2680 µM; in the assay with UACC-62 melanoma, > 100 µM and 952 µM. Besides, the GI50 in the assay on IGROV1 ovarian was > 100 µM and 1100 µM; with NCI-H460 lung, > 100 µM and 894 µM; with CAKI-1 renal it was > 100 µM and 926 µM. Besides, the TGI was > 100 µM and 2700 µM with SK-MEL-28 melanoma; > 100 µM and 1930 µM in the assay on HCT-116 colon; > 100 µM and 3250 µM with UO-31 renal; > 100 µM and 4960 µM with TK-10 renal; > 100 µM and 6220 µM with SF-268 CNS; > 100 µM and 3640 µM in the assay with UACC-62 melanoma. For the same compound, the TGI with IGROV1 ovarian was > 100 µM and 2640 µM; in the assay with NCI-H460 lung, > 100 µM and 3000 µM; in the assay with PC-3 prostate, 3960 µM; in the assay with CAKI-1 renal, > 100 µM and 2620 µM.
`CN(C)CCNC(=O)c1cc2c3ccccc3[nH]c2c2ncccc12`: the GI50 in the assay on SK-MEL-28 melanoma was 15.3 µM; in the assay on HCT-116 colon, 3.95 µM; with UO-31 renal, 2.13 µM; in the assay with TK-10 renal, 8.99 µM; in the assay with SF-268 CNS, 6.37 µM; with UACC-62 melanoma, 13.4 µM. For the same compound, the GI50 in the assay on IGROV1 ovarian was 1.14 µM; in the assay on NCI-H460 lung it was 4.17 µM; in the assay with PC-3 prostate it was 9.14 µM; in the assay with CAKI-1 renal, 0.515 µM. Besides, the TGI is 29.9 µM with SK-MEL-28 melanoma; 25.3 µM in the assay on HCT-116 colon; 24.3 µM with UO-31 renal; 54.7 µM with TK-10 renal; 23.7 µM in the assay on SF-268 CNS; 28 µM in the assay with UACC-62 melanoma. For the same compound, the TGI stood at 19.1 µM in the assay on IGROV1 ovarian, 18.4 µM with NCI-H460 lung, 34.2 µM with PC-3 prostate and 12.3 µM with CAKI-1 renal.
For `CC1=C(C(=O)Nc2ccc(F)c(Cl)c2)C(c2cccc(Oc3ccccc3)c2)NC(=O)N1` (centres undefined), the GI50 is 14.7 µM in the assay with SK-MEL-28 melanoma; 12.2 µM with HCT-116 colon; 12.2 µM with UO-31 renal; 8.67 µM in the assay with TK-10 renal; 15.6 µM with SF-268 CNS; 12.4 µM in the assay on UACC-62 melanoma. Moreover, the GI50 in the assay with IGROV1 ovarian was 10.7 µM; in the assay with NCI-H460 lung, 15.7 µM; with PC-3 prostate it was 10.5 µM; with CAKI-1 renal it was 18.6 µM. In addition, the TGI in the assay with SK-MEL-28 melanoma turned out to be 28.1 µM; in the assay on HCT-116 colon it was 24.6 µM; with UO-31 renal it was 26 µM; in the assay with TK-10 renal, 21.7 µM; with SF-268 CNS, 40.3 µM; with UACC-62 melanoma, 24.8 µM. Also, the TGI in the assay on IGROV1 ovarian turned out to be 24.2 µM; in the assay on NCI-H460 lung, 38.4 µM; with PC-3 prostate, 22.3 µM; in the assay with CAKI-1 renal, 38.8 µM.
